From paper PMC6767355 (Journal of Medicinal Chemistry, 2019)
Read-outs that look alike come from different tables or passages of the source.

Key:
OXA-10 = target: T1, OXA-10 (Pseudomonas aeruginosa, UniProt P14489); conditions: cited from earlier work
T1 construct: made in house

[1] = system: six NDM-1-producing clinical isolates of Escherichia coli and Klebsiella pneumoniae; assay: Antimicrobial susceptibility testing, MIC, summary over six clinical isolates; type: cell-based; conditions: read-out: MIC in the absence of VNRX-5133; all six NDM-1-producing isolates
Method: (§1) Minimal inhibitory concentration (MIC) values were determined by the agar dilution method and interpreted using published guidelines described by EUCAST/CLSI.[57] All reported MIC values are within ±1 log2 dilution of the reference MIC values.

[2] = system: NDM-1-producing Klebsiella pneumoniae clinical isolates; assay: Antimicrobial susceptibility testing, MIC by agar dilution; type: cell-based; conditions: antibiotic alone; for MIC: Klebsiella pneumoniae, strain B64, Kp, read-out: Cef/MEM MIC
Method: as §1

[3] = system: NDM-1-producing Escherichia coli clinical isolates; assay: as above; type: cell-based; conditions: antibiotic alone; for MIC: Escherichia coli, strain S117, Ec, read-out: Cef/MEM MIC
Method: as §1

L1 [4] = target: T2, L1 (Stenotrophomonas maltophilia, UniProt P52700); assay: β-lactamase inhibition, fluorogenic FC5 hydrolysis assay; type: biochemical
T2 construct: made in house
T2 sequence (P52700 34-290): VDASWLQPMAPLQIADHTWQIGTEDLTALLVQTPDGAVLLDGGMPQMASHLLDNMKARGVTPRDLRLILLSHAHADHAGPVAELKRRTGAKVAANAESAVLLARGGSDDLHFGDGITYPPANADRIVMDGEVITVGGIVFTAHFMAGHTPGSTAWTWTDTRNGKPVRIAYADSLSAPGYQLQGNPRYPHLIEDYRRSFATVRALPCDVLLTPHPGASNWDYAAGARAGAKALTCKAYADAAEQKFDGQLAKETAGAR

NDM-1 = target: T3, NDM-1 (Klebsiella pneumoniae, UniProt C7C422); type: biochemical; conditions: pre-incubation 0-180 min; supports reversible inhibition
T3 construct: made in house
T3 sequence (C7C422 29-270, looked up, species assumed): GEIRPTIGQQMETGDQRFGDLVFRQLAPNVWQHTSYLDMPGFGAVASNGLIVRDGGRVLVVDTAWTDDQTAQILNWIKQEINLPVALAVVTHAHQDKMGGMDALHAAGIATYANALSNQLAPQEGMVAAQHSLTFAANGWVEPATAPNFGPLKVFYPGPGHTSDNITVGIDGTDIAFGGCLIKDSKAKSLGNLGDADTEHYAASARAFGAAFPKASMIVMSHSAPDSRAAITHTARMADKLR

L1 [5] = target: T2, L1; conditions: cited from earlier work
CphA = target: T4, CphA (Aeromonas hydrophila, UniProt P26918); conditions: cited from earlier work
T4 construct: made in house
T4 sequence (P26918 28-254): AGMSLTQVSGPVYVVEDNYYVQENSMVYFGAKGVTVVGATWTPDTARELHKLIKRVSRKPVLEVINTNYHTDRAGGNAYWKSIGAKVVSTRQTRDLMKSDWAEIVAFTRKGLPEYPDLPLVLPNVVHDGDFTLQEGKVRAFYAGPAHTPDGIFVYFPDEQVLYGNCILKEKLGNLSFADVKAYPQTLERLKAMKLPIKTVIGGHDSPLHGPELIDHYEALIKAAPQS

T1 sequence (P14489 20-266, species assumed): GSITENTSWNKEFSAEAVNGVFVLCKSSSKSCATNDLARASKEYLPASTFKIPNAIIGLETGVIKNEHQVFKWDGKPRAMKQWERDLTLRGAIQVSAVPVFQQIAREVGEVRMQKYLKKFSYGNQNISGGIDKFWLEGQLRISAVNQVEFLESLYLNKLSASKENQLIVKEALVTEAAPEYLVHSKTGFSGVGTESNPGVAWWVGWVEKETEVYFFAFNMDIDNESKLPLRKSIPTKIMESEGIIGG

| Structure (SMILES) | MIC [1] [µg/mL] | MIC [2] [µg/mL] | Cef/MEM MIC ([2]; strain B68-1, Kp) [μg mL^–1] | Cef/MEM MIC ([2]; strain IR43, Kp) [μg mL^–1] | MIC [3] [µg/mL] | Cef/MEM MIC ([3]; strain 91N, Ec) [μg mL^–1] | Cef/MEM MIC ([3]; strain IR57, Ec) [μg mL^–1] | also measured |
| --- | --- | --- | --- | --- | --- | --- | --- | --- |
| O=C(O)C[C@@H]1CC[C@H](NC(=O)Cc2cccs2)B(O)O1 [vaborbactam] | – | – | – | – | – | – | – | IC50 (OXA-10; 100 mM aqueous sodium bicarbonate, read-out: IC50 OXA-10 (b)): > 400 µM; inhibition of OXA-10 (in words) (OXA-10): not inhibited; IC50 (OXA-10; without sodium bicarbonate, read-out: IC50 OXA-10): > 400 µM |
| C[C@@H](O)[C@H]1C(=O)N2C(C(=O)O)=C(S[C@@H]3CN[C@H](C(=O)N(C)C)C3)[C@H](C)[C@H]12 [MEM, meropenem] | > 64 | > 64 | >64 | >64 | > 64 | >64 | >64 | – |
| NCCN[C@H]1CC[C@H](CC(=O)N[C@H]2Cc3cccc(C(=O)O)c3OB2O)CC1 [VNRX-5133, (R)-3-(2-(trans-4-((2-Aminoethyl)amino)cyclohexyl)acetamido)-2-hydroxy-3,4-dihydro-2H-benzo[e][1,2]oxaborinine-8-carboxylic Acid] | – | – | – | – | – | – | – | inhibition of subclass B3 MBL L1 (in words) (L1 [4]): nor did it inhibit; IC50 (L1 [4]; B3 MBL, FC5): > 10 µM; effect of variation in pre-incubation time on IC50, NDM-1 (NDM-1): did not result in different IC50 values |
| NCc1ccc(C(=O)N[C@H]2Cc3cccc(C(=O)O)c3OB2O)cc1 [CB2] | – | – | – | – | – | – | – | IC50 L1 (L1 [5]): not inhibited[41]; IC50 (CphA): > 100 µM |
| CO/N=C(\C(=O)N[C@@H]1C(=O)N2C(C(=O)[O-])=C(C[N+]3(C)CCCC3)CS[C@H]12)c1csc(N)n1 [Cef, cefepime] | > 64 | > 64 | >64 | >64 | > 64 | >64 | >64 | – |
